Here are results for 18 compounds from ChEMBL document CHEMBL3758074, “Structure-activity relationship study of 4-(thiazol-5-yl)benzoic acid derivatives as potent protein kinase CK2 inhibitors” (Bioorg Med Chem, 2016).

Data set [1] has as its system A549. Kind of data set: Cytotoxicity against human A549 cells after 72 hrs by MTS assay. The class given is functional. Particulars: A549, 72 h.
The nature of data set [2]: Thermodynamic solubility of compound in 67 mM phosphate buffer at pH 7.4 after 24 hrs by HPLC analysis. Format: physicochemical. Particulars: read-out: Therm_solubility.
The target of data set [3] is Casein kinase II subunit alpha (Homo sapiens, UniProt P68400). Kind of data set: Inhibition of GST-tagged human CK2alpha (1 to 391 residues) using CK2tide as substrate incubated for 1 hr by off-chip mobility shift assay.
Data set [4] addresses Casein kinase II subunit alpha' (Homo sapiens, UniProt P19784). Kind of data set: Inhibition of GST-tagged human CK2alpha' (1 to 350 residues) using CK2tide as substrate incubated for 1 hr by off-chip mobility shift assay.

Values after ≈ are worked out from the molar mass of the structure shown.

As a reminder, the CC50 is the concentration that lowers cell viability or growth by half. With `COc1ccc(C(=O)Nc2ncc(-c3ccc(C(=O)O)cc3OCc3ccccc3)s2)cc1`, the half-maximal cytotoxic concentration (CC50) in data set [1] was 1.5 µM.

With `COc1ccc(C(=O)Nc2ncc(-c3ccc(C(=O)O)nc3)s2)cc1`, in data set [1], the 50% cytotoxic concentration (CC50) was above 30 µM. Further, the solubility thermodynamic at 24 h in data set [2] is 14 µg/mL (≈ 39.4 µM).

As for `COc1ccc(C(=O)Nc2ncc(-c3ccc(C(=O)O)cc3OCc3cccc(Cl)c3)s2)cc1`, in data set [1], the CC50 turned out to be 18.7 µM. This counts as double-digit micromolar.

`COc1ccc(C(=O)Nc2ncc(-c3ccc(C(=O)O)cc3OCc3ccccc3OC)s2)cc1` displayed a CC50 in data set [1] of 2 µM. For the same compound, in data set [2], the solubility thermodynamic at 24 h turned out to be 1.4 µg/mL (≈ 2.85 µM).

Take `COc1ccc(C(=O)Nc2ncc(-c3ccc(C(=O)O)c4ccccc34)s2)cc1`: the CC50 in data set [1] was above 30 µM.

In turn, `COc1ccc(C(=O)Nc2ncc(-c3ccc(C(=O)O)nn3)s2)cc1` had a cytotoxic concentration (CC50) in data set [1] above 30 µM. Besides, the solubility thermodynamic at 24 h in data set [2] is 1020 µg/mL (≈ 2880 µM).

As for `COc1ccc(C(=O)Nc2ncc(-c3ccc(C(=O)O)cn3)s2)cc1`, in data set [1], the cytotoxic concentration (CC50) is above 30 µM. The solubility thermodynamic at 24 h in data set [2] amounted to 90 µg/mL (≈ 253 µM).

`COc1ccc(C(=O)Nc2ncc(-c3ccc(C(=O)O)cc3COc3ccccc3)s2)cc1` registered a CC50 in data set [1] of 21.9 µM.

Turning to `COc1ccc(C(=O)Nc2ncc(-c3ccc(C(=O)O)cc3OCc3ccccc3F)s2)cc1`, the CC50 in data set [1] was found to be 3.3 µM. Against the preceding compound, the CC50 is about 6.6-fold lower.

In data set [1], `COc1ccc(C(=O)Nc2ncc(-c3ccc(C(=O)O)cc3OCCc3ccccc3)s2)cc1` showed a CC50 of 3.6 µM.

What is called IC50 is the concentration that inhibits the measured activity by half. `COc1ccc(C(=O)Nc2ncc(-c3ccc(C(=O)O)cc3)s2)cc1`: the IC50 in data set [3] was 0.02 µM; in data set [4], 0.011 µM. For the same compound, the half-maximal cytotoxic concentration (CC50) in data set [1] turned out to be 8.5 µM. The solubility thermodynamic at 24 h in data set [2] came out at 2.7 µg/mL (≈ 7.62 µM).

In turn, `COc1ccc(C(=O)Nc2ncc(-c3ccc(C(=O)O)cc3OCc3ccccc3Br)s2)cc1` gave a CC50 in data set [1] of 1.5 µM.

The compound `COc1ccc(C(=O)Nc2ncc(-c3ccc(C(=O)O)cc3Oc3ccccc3)s2)cc1` displayed a CC50 in data set [1] of 4.7 µM.

The compound `COc1ccc(C(=O)Nc2ncc(-c3ccc(C(=O)O)cc3OCc3ccccn3)s2)cc1` had a CC50 in data set [1] above 30 µM.

For the compound `COc1ccc(C(=O)Nc2ncc(-c3ccc(C(=O)O)cc3OCc3ccccc3Cl)s2)cc1`, in data set [1], half-maximal cytotoxicity (CC50) was put at 1.6 µM.

As to `COc1ccc(C(=O)Nc2ncc(-c3ccc(C(=O)O)cc3OCc3ccccc3C#N)s2)cc1`, in data set [1], the CC50 was above 30 µM.

In turn, `O=C(O)c1ccc2c(c1)nc(Nc1cccc(Cl)c1)c1ccncc12` [SILMITASERTIB] registered a half-maximal cytotoxic concentration (CC50) in data set [1] of 9.9 µM. In data set [2], the solubility thermodynamic at 24 h is 57 µg/mL (≈ 163 µM).

In turn, `COc1ccc(C(=O)Nc2ncc(-c3ccc(C(=O)O)cc3OCc3ccc(Cl)cc3)s2)cc1` yielded a CC50 in data set [1] of 2.5 µM.
